SMILES strings stand for the structures.

The test system of the first assay is KM mice. As to the kind of experiment: Test for drug-induced disappearance of righting reflex in mice. The note with it: 15 mg/kg, single rapid bolus via tail vein. The class given is in vivo. The source says:
In anesthetic drug experiments, latency generally refers to the time from the start of administration to the loss of consciousness of the subject. The shorter latency is preferred, indicating a rapid onset of action after administration. The duration of anesthesia generally refers to the duration of time from the loss of consciousness to the restoration of consciousness of the subject. The duration of the drug will vary from animal model to animal species. Too long anesthesia may produce adverse cardiovascular and respiratory responses, such as adverse neurological effects to the subject, including sleepiness and dizziness; meanwhile, too short duration of anesthesia may affect the anesthesia effect, causing problems such as increase of anesthesia dosage during the operation.
KM mice (female, 18-25 g) were randomly grouped and subjected to a single administration by rapid bolus via the tail vein. The latency and duration of disappearance of righting reflex in the mice were recorded.
`COC(=O)CC[C@@H]1N=C(c2ccccc2Cl)c2cc(Cl)ccc2-n2c(SCc3ccncc3)nnc21` [Compound 124, methyl (S)-3-(8-chloro-6-(2-chlorophenyl)-1-(2-((pyridin-4-yl)methyl)thio)-4H-benzo[f][1,2,4]triazolo[4,3-a][1,4]diazepin-4-yl)propionate] came in with a Duration of 7.67 min and a Latency of 0.18 min.

Still in this assay, the particulars now being: 30 mg/kg, single rapid bolus via tail vein.
The molecule `C#CCSc1nnc2n1-c1ccc([N+](=O)[O-])cc1C(c1ccccc1F)=N[C@H]2CCC(=O)OC` [Compound 50, methyl (S)-3-(8-nitro-6-(2-fluorophenyl)-1-(prop-2-yn-1-ylthio)-4H-benzo[f][1,2,4]triazolo[4,3-a][1,4]diazepin-4-yl)propionate] came in with a Duration of 15.27 min and a Latency of 0.93 min.

`COC(=O)CC[C@@H]1N=C(c2ccccc2Cl)c2cc(Cl)ccc2-n2c1n[nH]c2=S` [Tautomer of compound 2, methyl (S)-3-(8-chloro-6-(2-chlorophenyl)-1-thio-2,4-dihydro-1H-benzo[f][1,2,4]triazolo[4,3-a][1,4]diazepin-4-yl)propionate] gave a Duration of 10.35 min and a Latency of 1.10 min.

`C#CCSc1nnc2n1-c1ccc(Cl)cc1C(c1ccccc1Cl)=N[C@H]2CCC(=O)OC` [Compound 78, methyl (S)-3-(8-chloro-6-(2-chlorophenyl)-1-(prop-2-yn-1-ylthio)-4H-benzo[f][1,2,4]triazolo[4,3-a][1,4]diazepin-4-yl)propionate] registered a Duration of 12.67 min and a Latency of 1.05 min.

Turning to `COC(=O)CC[C@@H]1N=C(c2ccccn2)c2cc(Br)ccc2-n2c(SC)nnc21` [Compound 114, methyl (S)-3-(8-bromo-6-(pyridin-2-yl)-1-methylthio-4H-benzo[f][1,2,4]triazolo[4,3-a][1,4]diazepin-4-yl)propionate], the Duration turned out to be 20.32 min and the Latency came to 0.41 min.

`COC(=O)CC[C@@H]1N=C(c2ccccc2F)c2cc(Cl)ccc2-n2c(SCCO)nnc21` [Compound 17, methyl (S)-3-(8-chloro-6-(2-fluorophenyl)-1-((2-hydroxyethyl)thio)-4H-benzo[f][1,2,4]triazolo[4,3-a][1,4]diazepin-4-yl)propionate] showed a Duration of 15.35 min and a Latency of 1.09 min.

`COC(=O)CC[C@@H]1N=C(c2ccccc2F)c2cc(Br)ccc2-n2c(SC(=O)N3CCN(C)CC3)nnc21` [Compound 131] came in with a Duration of 6.84 min and a Latency of 0.56 min.

As to `CCCSc1nnc2n1-c1ccc(Cl)cc1C(c1ccccc1F)=N[C@H]2CCC(=O)OC` [Compound 14, methyl (S)-3-(8-chloro-6-(2-fluorophenyl)-1-(propylthio)-4H-benzo[f][1,2,4]triazolo[4,3-a][1,4]diazepin-4-yl)propionate], the Duration was found to be 9.12 min and the Latency was 0.78 min.

As for `COC(=O)CC[C@@H]1N=C(c2ccccc2Cl)c2cc(Cl)ccc2-n2c(SCc3ccncc3)nnc21` [Compound 124, methyl (S)-3-(8-chloro-6-(2-chlorophenyl)-1-(2-((pyridin-4-yl)methyl)thio)-4H-benzo[f][1,2,4]triazolo[4,3-a][1,4]diazepin-4-yl)propionate], the Duration came out at 13.31 min and the Latency is 0.23 min.

`CCCSc1nnc2n1-c1ccc([N+](=O)[O-])cc1C(c1ccccc1F)=N[C@H]2CCC(=O)OC` [Compound 16, methyl (S)-3-(8-nitro-6-(2-fluorophenyl)-1-(propylthio)-4H-benzo[f][1,2,4]triazolo[4,3-a][1,4]diazepin-4-yl)propionate] yielded a Duration of 6.25 min and a Latency of 0.79 min.

Regarding `COC(=O)CC[C@@H]1N=C(c2ccccc2Cl)c2cc(Br)ccc2-n2c(SCN3CCOCC3)nnc21` [Compound 100, methyl (S)-3-(8-bromo-6-(2-chlorophenyl)-1-((morpholinomethyl)thio)-4H-benzo[f][1,2,4]triazolo[4,3-a][1,4]diazepin-4-yl)propionate], the Duration stood at 9.75 min and the Latency is 0.64 min.

`COC(=O)CC[C@@H]1N=C(c2ccccc2F)c2cc(Cl)ccc2-n2c(SCN3CCN(c4ccccc4)CC3)nnc21` [Compound 72, methyl (S)-3-(8-chloro-6-(2-fluorophenyl)-1-(((4-phenylpiperazin-1-yl)methyl)thio)-4H-benzo[f][1,2,4]triazolo[4,3-a][1,4]diazepin-4-yl)propionate] registered a Duration of 13.12 min and a Latency of 0.42 min.

In turn, `COC(=O)CC[C@@H]1N=C(c2ccccc2Cl)c2cc(Br)ccc2-n2c(SCOP(=O)(O)O)nnc21` [Compound 112, methyl (S)-3-(8-bromo-6-(2-chlorophenyl)-1-(((phosphonooxy)methyl)thio)-4H-benzo[f][1,2,4]triazolo[4,3-a][1,4]diazepin-4-yl)propionate] had a Duration of 19.21 min and a Latency of 0.78 min.

On to `COC(=O)CC[C@@H]1N=C(c2ccccc2Cl)c2cc(Cl)ccc2-n2c(SCC3=NCCN3)nnc21` [Compound 144, methyl (S)-3-(8-chloro-6-(2-chlorophenyl)-1-(((4,5-dihydro-1H-imidazol-2-yl)methyl)thio)-4H-benzo[f][1,2,4]triazolo[4,3-a][1,4]diazepin-4-yl)propionate], for which the Duration worked out at 5.32 min and the Latency was determined as 0.45 min.

In turn, `COC(=O)CC[C@@H]1N=C(c2ccccc2F)c2cc(Br)ccc2-n2c(SC)nnc21` [Compound 9, methyl (S)-3-(8-bromo-6-(2-fluorophenyl)-1-(methylthio)-4H-benzo[f][1,2,4]triazolo[4,3-a][1,4]diazepin-4-yl)propionate] gave a Duration of 12.12 min and a Latency of 0.84 min.

`COC(=O)CC[C@@H]1N=C(c2ccccc2Cl)c2cc(Cl)ccc2-n2c(SC3CCN(C)CC3)nnc21` [Compound 93, methyl (S)-3-(8-chloro-6-(2-chlorophenyl)-1-((1-methylpiperidin-4-yl)thio)-4H-benzo[f][1,2,4]triazolo[4,3-a][1,4]diazepin-4-yl)propionate]: the Duration was determined as 12.41 min and the Latency stood at 0.58 min.

The molecule `COC(=O)CC[C@@H]1N=C(c2ccccc2)c2cc([N+](=O)[O-])ccc2-n2c(SCCN3CCOCC3)nnc21` [Compound 107, methyl (S)-3-(8-nitro-1-((2-morpholinoethyl)thio)-6-phenyl-4H-benzo[f][1,2,4]triazolo[4,3-a][1,4]diazepin-4-yl)propionate] returned a Duration of 13.64 min and a Latency of 0.45 min.

For `COC(=O)CC[C@@H]1N=C(c2ccccc2F)c2cc(Br)ccc2-n2c(SCCN3CCN(C)CC3)nnc21` [Compound 61, methyl (S)-3-(8-bromo-6-(2-fluorophenyl)-1-((2-(4-methylpiperazin-1-yl)ethyl)thio)-4H-benzo[f][1,2,4]triazolo[4,3-a][1,4]diazepin-4-yl)propionate], the Duration came to 12.28 min and the Latency is 0.82 min.

Consider `COC(=O)CC[C@@H]1N=C(c2ccccc2Cl)c2cc(Cl)ccc2-n2c(SCOP(=O)(O)O)nnc21` [Compound 111, methyl (S)-3-(8-chloro-6-(2-chlorophenyl)-1-(((phosphonooxy)methyl)thio)-4H-benzo[f][1,2,4]triazolo[4,3-a][1,4]diazepin-4-yl)propionate], for which the Duration is on record as 18.36 min and the Latency is 0.67 min.

On to `CCOC(=O)CC[C@@H]1N=C(c2ccccc2Cl)c2cc(Cl)ccc2-n2c(SC)nnc21` [Compound 42, ethyl (S)-3-(8-chloro-6-(2-chlorophenyl)-1-(methylthio)-4H-benzo[f][1,2,4]triazolo[4,3-a][1,4]diazepin-4-yl)propionate], for which the Duration was determined as 4.68 min and the Latency amounted to 0.65 min.

As for `COC(=O)CC[C@@H]1N=C(c2ccccc2F)c2cc(Br)ccc2-n2c(SCc3ccncc3)nnc21` [Compound 125, methyl (S)-3-(8-bromo-6-(2-fluorophenyl)-1-(2-((pyridin-4-yl)methyl)thio)-4H-benzo[f][1,2,4]triazolo[4,3-a][1,4]diazepin-4-yl)propionate], the Duration was determined as 7.81 min and the Latency is reported as 0.19 min.

The same assay, now with this note: 60 mg/kg, single rapid bolus via tail vein.
Molecule `C#CCSc1nnc2n1-c1ccc([N+](=O)[O-])cc1C(c1ccccc1Cl)=N[C@H]2CCC(=O)OC` [Compound 80, methyl (S)-3-(8-nitro-6-(2-chlorophenyl)-1-(prop-2-yn-1-ylthio)-4H-benzo[f][1,2,4]triazolo[4,3-a][1,4]diazepin-4-yl)propionate] registered a Duration of 13.57 min and a Latency of 0.86 min.

In turn, `CCCSc1nnc2n1-c1ccc([N+](=O)[O-])cc1C(c1ccccc1F)=N[C@H]2CCC(=O)OC` [Compound 16, methyl (S)-3-(8-nitro-6-(2-fluorophenyl)-1-(propylthio)-4H-benzo[f][1,2,4]triazolo[4,3-a][1,4]diazepin-4-yl)propionate] showed a Duration of 6.6 min and a Latency of 0.28 min.

On to `COC(=O)CC[C@@H]1N=C(c2ccccc2F)c2cc(Cl)ccc2-n2c(SCN3CCN(c4ccccc4)CC3)nnc21` [Compound 72, methyl (S)-3-(8-chloro-6-(2-fluorophenyl)-1-(((4-phenylpiperazin-1-yl)methyl)thio)-4H-benzo[f][1,2,4]triazolo[4,3-a][1,4]diazepin-4-yl)propionate], for which the Duration is recorded as 10.67 min and the Latency is given as 1.52 min.

`C#CCSc1nnc2n1-c1ccc(Cl)cc1C(c1ccccc1F)=N[C@H]2CCC(=O)OC` [Compound 48, methyl (S)-3-(8-chloro-6-(2-fluorophenyl)-1-(prop-2-yn-1-ylthio)-4H-benzo[f][1,2,4]triazolo[4,3-a][1,4]diazepin-4-yl)propionate] had a Duration of 8.54 min and a Latency of 1.25 min.

In the case of `COC(=O)CC[C@@H]1N=C(c2ccccc2Cl)c2cc(Br)ccc2-n2c(SCOP(=O)(O)O)nnc21` [Compound 112, methyl (S)-3-(8-bromo-6-(2-chlorophenyl)-1-(((phosphonooxy)methyl)thio)-4H-benzo[f][1,2,4]triazolo[4,3-a][1,4]diazepin-4-yl)propionate], the Duration is 12.62 min and the Latency was 0.46 min.

Regarding `COC(=O)CC[C@@H]1N=C(c2ccccc2F)c2cc([N+](=O)[O-])ccc2-n2c(SCN3CCOCC3)nnc21` [Compound 71, methyl (S)-3-(8-nitro-6-(2-fluorophenyl)-1-((morpholinomethyl)thio)-4H-benzo[f][1,2,4]triazolo[4,3-a][1,4]diazepin-4-yl)propionate], the Duration is recorded as 12.10 min and the Latency is 0.56 min.

Values taken from US20230416258A1, “BENZ[…], AND PREPARATION METHOD THEREFOR AND USE THEREOF” (CHINA PHARMACEUTICAL UNIVERSITY, priority 2020, published 2023).
